# Test results: patent publication US8288429B2, “2-aza-bicyclo[3.3.0]octane derivatives” (Actelion Pharmaceuticals Ltd., priority 2007, dated 2012)
# Where two headings read alike, the source gives them in different places.
# Key:
# [1] = biological target: T1, human orexin-2 receptor (Homo sapiens, UniProt O43614); experiment: Intracellular calcium measurement (FLIPR), orexin-A induced response in CHO cells expressing the human orexin-2 receptor; assay type: cell-based; conditions: 3 nM orexin-A as agonist
# T1 construct: expressed in transfected cells; host or cells: CHO cells (selected with G418)
# T1 sequence (O43614 1-444): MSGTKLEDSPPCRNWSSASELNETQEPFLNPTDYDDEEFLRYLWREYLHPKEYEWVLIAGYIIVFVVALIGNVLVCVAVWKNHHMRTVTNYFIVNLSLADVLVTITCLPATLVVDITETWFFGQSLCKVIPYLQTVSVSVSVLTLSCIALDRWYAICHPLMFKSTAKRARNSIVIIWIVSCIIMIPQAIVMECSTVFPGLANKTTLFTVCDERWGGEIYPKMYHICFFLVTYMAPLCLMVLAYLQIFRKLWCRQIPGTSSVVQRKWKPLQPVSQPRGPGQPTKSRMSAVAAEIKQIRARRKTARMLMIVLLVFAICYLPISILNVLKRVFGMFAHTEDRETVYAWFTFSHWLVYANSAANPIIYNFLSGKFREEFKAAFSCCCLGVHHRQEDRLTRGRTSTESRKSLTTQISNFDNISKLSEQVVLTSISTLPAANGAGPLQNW
# Protocol: (§1) The orexin receptor antagonistic activity of the compounds of formula (I) is determined in accordance with the following experimental method.
# (§2) Intracellular Calcium Measurements:
# (§3) Chinese hamster ovary (CHO) cells expressing the human orexin-1 receptor and the human orexin-2 receptor, respectively, are grown in culture medium (Ham F-12 with L-Glutamine) containing 300 μg/ml G418, 100 U/ml penicillin, 100 μg/ml streptomycin and 10% heat inactivated fetal calf serum (FCS). The cells are seeded at 20,000 cells/well into 384-well black clear bottom sterile plates (Greiner). The seeded plates are incubated overnight at 37° C. in 5% CO2.
# (§4) Human orexin-A as an agonist is prepared as 1 mM stock solution in MeOH: water (1:1), diluted in HBSS containing 0.1% bovine serum albumin (BSA), NaHCO3: 0.375 g/l and 20 mM HEPES for use in the assay at a final concentration of 3 nM.
# (§5) Antagonists are prepared as 10 mM stock solution in DMSO, then diluted in 384-well plates using DMSO followed by a transfer of the dilutions into in HBSS containing 0.1% bovine serum albumin (BSA), NaHCO3: 0.375 g/l and 20 mM HEPES. On the day of the assay, 50 μl of staining buffer (HBSS containing 1% FCS, 20 mM HEPES, NaHCO3: 0.375 g/l, 5 mM probenecid (Sigma) and 3 μM of the fluorescent calcium indicator fluo-4 AM (1 mM stock solution in DMSO, containing 10% pluronic) is added to each well. The 384-well cell-plates are incubated for 50 min at 37° C. in 5% CO2 followed by equilibration at rt for 30-120 min before measurement.
# (§6) Within the Fluorescent Imaging Plate Reader (FLIPR2 or FLIPR Tetra, Molecular Devices), antagonists are added to the plate in a volume of 10 μl/well, incubated for 10 min and finally 10 μl/well of agonist is added. Fluorescence is measured for each well at 1 second intervals, and the height of each fluorescence peak is compared to the height of the fluorescence peak induced by 3 nM orexin-A with vehicle in place of antagonist. For each antagonist, the IC50 value (the concentration of compound needed to inhibit 50% of the agonistic response) is determined. The calculated IC50 values of the compounds may fluctuate depending on the daily cellular assay performance. Fluctuations of this kind are known to those skilled in the art.
# [2] = biological target: T2, human orexin-1 receptor (Homo sapiens, UniProt O43613); experiment: Intracellular calcium measurement (FLIPR), orexin-A induced response in CHO cells expressing the human orexin-1 receptor; assay type: cell-based; conditions: 3 nM orexin-A as agonist
# T2 construct: expressed in transfected cells; host or cells: CHO cells (selected with G418)
# T2 sequence (O43613 1-425): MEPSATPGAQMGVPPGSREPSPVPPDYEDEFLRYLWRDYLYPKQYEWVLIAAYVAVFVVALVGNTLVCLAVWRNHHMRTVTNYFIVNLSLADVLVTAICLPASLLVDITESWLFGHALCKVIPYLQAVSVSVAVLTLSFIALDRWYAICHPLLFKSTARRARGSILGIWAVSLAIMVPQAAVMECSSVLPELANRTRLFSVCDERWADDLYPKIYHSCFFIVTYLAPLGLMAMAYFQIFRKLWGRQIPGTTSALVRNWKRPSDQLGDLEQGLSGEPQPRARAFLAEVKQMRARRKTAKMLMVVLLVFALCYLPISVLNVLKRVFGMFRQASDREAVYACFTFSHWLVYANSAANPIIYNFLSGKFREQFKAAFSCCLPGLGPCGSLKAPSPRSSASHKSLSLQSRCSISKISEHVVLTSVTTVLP
# Protocol: as §1, §2, §3, §4, §5, §6
# [3] = measured using FLIPR2, read-out: OX2 IC50
# [4] = measured using FLIPR2, read-out: OX1 IC50
# [5] = measured using FLIPR Tetra (footnote 1), read-out: OX2 IC50
# [6] = measured using FLIPR Tetra (footnote 1), read-out: OX1 IC50
SMILES,"IC50 [1, 3] [nM]","IC50 [2, 4] [nM]","IC50 [1, 5] [nM]","IC50 [2, 6] [nM]"
"Cc1ccc(-c2sc(C)nc2C(=O)N2[C@H](CNC(=O)c3c(C)nc4sccn34)C[C@@H]3CCC[C@@H]32)cc1 [Example 1, 6-Methyl-imidazo[2,1-b]thiazole-5-carboxylic acid [(1S,3S,5S)-2-(2-methyl-5-p-tolyl-thiazole-4-carbonyl)-2-azabicyclo[3.3.0]octane-3-ylmethyl]-amide]",40,17,,
"Cc1nc2sccn2c1C(=O)NC[C@@H]1C[C@@H]2CCC[C@@H]2N1C(=O)c1nc(C2CC2)sc1-c1cccc(C(F)(F)F)c1 [Example 7, 6-Methyl-imidazo[2,1-b]thiazole-5-carboxylic acid {(1S,3S,5S)-2-[2-cyclopropyl-5-(3-trifluoromethyl-phenyl)-thiazole-4-carbonyl]-2-azabicyclo[3.3.0]octane-3-ylmethyl}-amide]",95,18,,
"Cc1nc(C(=O)N2[C@H](CNC(=O)c3noc4ccccc34)C[C@@H]3CCC[C@@H]32)c(-c2cccc(Cl)c2)s1 [Example 9, Benzo[d]isoxazole-3-carboxylic acid {(1S,3S,5S)-2-[5-(3-chloro-phenyl)-2-methyl-thiazole-4-carbonyl]-2-azabicyclo[3.3.0]octane-3-ylmethyl}-amide]",283,275,,

# Continued, values first:
"IC50 [1, 3] [nM]","IC50 [2, 4] [nM]","IC50 [1, 5] [nM]","IC50 [2, 6] [nM]",SMILES
,,12,11,"Cc1nc(C(=O)N2[C@H](CNC(=O)c3cccc4c3CCO4)C[C@@H]3CCC[C@@H]32)c(-c2cccc(C(F)(F)F)c2)s1 [Example 16, 2,3-Dihydro-benzofuran-4-carboxylic acid {(1S,3S,5S)-2-[2-methyl-5-(3-trifluoromethyl-phenyl)-thiazole-4-carbonyl]-2-azabicyclo[3.3.0]octane-3-ylmethyl}-amide]"
,,32,37,"Cc1nc(C(=O)N2[C@H](CNC(=O)c3cccc4c3CCO4)C[C@@H]3CCC[C@@H]32)c(-c2ccc(F)c(Br)c2)s1 [Example 19, 2,3-Dihydro-benzofuran-4-carboxylic acid {(1S,3S,5S)-2-[5-(3-bromo-4-fluoro-phenyl)-2-methyl-thiazole-4-carbonyl]-2-azabicyclo[3.3.0]octane-3-ylmethyl}-amide]"
,,41,48,"O=C(NC[C@@H]1C[C@@H]2CCC[C@@H]2N1C(=O)c1nc(C2CC2)sc1-c1ccccc1)c1cccc2c1CCO2 [Example 26, 2,3-Dihydro-benzofuran-4-carboxylic acid [(1S,3S,5S)-2-(2-cyclopropyl-5-phenyl-thiazole-4-carbonyl)-2-azabicyclo[3.3.0]octane-3-ylmethyl]-amide]"
